# Measurements from patent publication US20090182026A1, “ALPHA 2 ADRENERGIC AGONISTS” (ALLERGAN, INC., priority 2005, published 2009).
# Entries after “also recorded” stand apart in the source; their conditions may differ.
# How the values were obtained:
# Alpha adrenergic = Alpha adrenergic activity of prior-application compound (statement); settings: background statement
# alpha2B receptor = biological target: T1, alpha2B receptor (Homo sapiens, UniProt P18089); assay: RSAT assay, alpha2B receptor; assay type: cell-based; settings: NIH-3T3 cells, relative to brimonidine, NA = not active at concentrations less than 10 micromolar
# T1 construct: expressed in transfected cells; host or cells: NIH-3T3
# T1 sequence (P18089 1-450): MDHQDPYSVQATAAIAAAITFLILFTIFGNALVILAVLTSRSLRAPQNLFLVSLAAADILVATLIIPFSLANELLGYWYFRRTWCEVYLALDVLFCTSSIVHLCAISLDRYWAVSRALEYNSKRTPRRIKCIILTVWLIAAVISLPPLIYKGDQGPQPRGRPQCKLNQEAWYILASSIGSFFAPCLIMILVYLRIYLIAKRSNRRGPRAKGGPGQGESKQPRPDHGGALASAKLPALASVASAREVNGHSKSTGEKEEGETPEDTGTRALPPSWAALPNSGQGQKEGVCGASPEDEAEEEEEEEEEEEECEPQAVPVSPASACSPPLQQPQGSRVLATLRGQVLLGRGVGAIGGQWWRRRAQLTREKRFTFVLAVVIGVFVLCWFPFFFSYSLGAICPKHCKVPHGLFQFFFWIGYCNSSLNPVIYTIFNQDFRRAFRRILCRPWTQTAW
# Method: (§1) The RSAT assay measures a receptor-mediated loss of contact inhibition that results in selective proliferation of receptor-containing cells in a mixed population of confluent cells. The increase in cell number is assessed with an appropriate transfected marker gene such as […], the activity of which can be easily measured in a 96-well format. Receptors that activate the G protein, Gq, elicit this response. Alpha2 receptors, which normally couple to Gi, activate the RSAT response when coexpressed with a hybrid Gq protein that has a Gi receptor recognition domain, called Gq/i5.
# (§2) NIH-3T3 cells are plated at a density of 2×10^6 cells in 15 cm dishes and maintained in Dulbecco's modified Eagle's medium supplemented with 10% calf serum. One day later, cells are cotransfected by calcium phosphate precipitation with mammalian expression plasmids encoding p-SV-β-galactosidase (5-10 μg), receptor (1-2 μg) and G protein (1-2 μg). 40 μg salmon sperm DNA may also be included in the transfection mixture. Fresh media is added on the following day and 1-2 days later, cells are harvested and frozen in 50 assay aliquots. Cells are thawed and 100 μl added to 100 μl aliquots of various concentrations of drugs in triplicate in 96-well dishes. Incubations continue 72-96 hr at 37° C. After washing with phosphate-buffered saline, β-galactosidase enzyme activity is determined by adding […] of the chromogenic substrate (consisting of 3.5 mM o-nitrophenyl-β-D-galactopyranoside and 0.5% nonidet P-40 in phosphate buffered saline), incubating overnight at 30° C. and measuring optical density at 420 nm. The absorbance is a measure of enzyme activity, which depends on cell number and reflects a receptor-mediated cell proliferation. The efficacy or intrinsic activity is calculated as a ratio of the maximal effect of the drug to the maximal effect of a standard full agonist for each receptor subtype. Brimonidine, also called UK14304, the chemical structure of which is shown below, is used as the standard agonist for the alpha2A, alpha2B and alpha2C receptors. […]
# alpha2A receptor = biological target: T2, alpha2A receptor (Homo sapiens, UniProt P08913); assay: RSAT assay, alpha2A receptor; assay type: cell-based; settings: NIH-3T3 cells, relative to brimonidine, NA = not active at concentrations less than 10 micromolar
# T2 construct: expressed in transfected cells; host or cells: NIH-3T3
# T2 sequence (P08913 1-465): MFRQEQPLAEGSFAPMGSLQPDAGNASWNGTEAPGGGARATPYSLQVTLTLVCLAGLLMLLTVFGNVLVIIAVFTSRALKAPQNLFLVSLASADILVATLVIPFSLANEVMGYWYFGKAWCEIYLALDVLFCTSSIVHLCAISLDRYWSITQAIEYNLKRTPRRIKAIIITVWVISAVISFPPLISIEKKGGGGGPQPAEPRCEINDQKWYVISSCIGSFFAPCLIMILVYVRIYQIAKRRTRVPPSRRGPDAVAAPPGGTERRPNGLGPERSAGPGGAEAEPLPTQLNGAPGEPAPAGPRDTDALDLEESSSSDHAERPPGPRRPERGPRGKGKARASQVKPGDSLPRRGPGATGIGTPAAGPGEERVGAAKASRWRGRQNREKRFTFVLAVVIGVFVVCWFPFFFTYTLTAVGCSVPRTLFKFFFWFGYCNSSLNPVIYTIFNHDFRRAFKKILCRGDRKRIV
# Method: as §1, §2
# alpha2C receptor = biological target: T3, alpha2C receptor (Homo sapiens, UniProt P18825); assay: RSAT assay, alpha2C receptor; assay type: cell-based; settings: NIH-3T3 cells, relative to brimonidine, NA = not active at concentrations less than 10 micromolar
# T3 construct: expressed in transfected cells; host or cells: NIH-3T3
# T3 sequence (P18825 1-462): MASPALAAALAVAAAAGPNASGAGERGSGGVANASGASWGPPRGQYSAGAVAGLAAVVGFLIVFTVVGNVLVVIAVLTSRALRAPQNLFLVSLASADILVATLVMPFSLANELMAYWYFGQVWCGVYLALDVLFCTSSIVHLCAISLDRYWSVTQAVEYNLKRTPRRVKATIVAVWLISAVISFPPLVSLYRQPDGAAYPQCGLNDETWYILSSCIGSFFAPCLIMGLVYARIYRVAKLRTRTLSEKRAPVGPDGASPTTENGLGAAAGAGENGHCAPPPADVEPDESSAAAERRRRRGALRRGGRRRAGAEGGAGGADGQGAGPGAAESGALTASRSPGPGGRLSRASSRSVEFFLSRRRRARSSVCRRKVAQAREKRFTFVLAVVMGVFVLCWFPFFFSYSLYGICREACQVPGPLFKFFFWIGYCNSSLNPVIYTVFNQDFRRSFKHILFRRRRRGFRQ
# Method: as §1, §2
# α1 = assay: RSAT assay, α1 receptor; assay type: cell-based; settings: NIH-3T3 cells, ratio of maximal effect to that of standard full agonist, NA = not active at concentrations less than 10 micromolar
# Method: as §1
# NIH-3T3 cells are plated at a density of 2×10^6 cells in 15 cm dishes and maintained in Dulbecco's modified Eagle's medium supplemented with 10% calf serum. […] After washing with phosphate-buffered saline, β-galactosidase enzyme activity is determined by adding […] of the chromogenic substrate (consisting of 3.5 mM o-nitrophenyl-β-D-galactopyranoside and 0.5% nonidet P-40 in phosphate buffered saline), incubating overnight at 30° C. and measuring optical density at 420 nm. The absorbance is a measure of enzyme activity, which depends on cell number and reflects a receptor-mediated cell proliferation. The efficacy or intrinsic activity is calculated as a ratio of the maximal effect of the drug to the maximal effect of a standard full agonist for each receptor subtype. […]
# [1] = tested on: intraocular pressure (IOP); assay: IOP model, normotensive rabbits; assay type: in vivo, New Zealand Rabbits; settings: for lowering of IOP: qualitative statement (FIG. 2); for decrease in IOP: topical, rabbit eye (FIG. 2)
# Method: Male New Zealand Rabbits (6-7; 2-3.5 kg) are used to evaluate drug effects on normotensive IOP measurements. The rabbits are carefully handled so as to minimize excitement. Approximately 25 ul of dilute OphtheticR (0.05%) topical anesthesia is administered to each eye. An initial IOP determination is made in both eyes. Rabbits with 3 mmHg or greater difference in IOP between its right and left eyes are replaced at this time.
# Immediately following the T=0 reading in both eyes the rabbits are treated with the compound by a topical route. 35 ul of the test solution is instilled onto the cornea of the randomly selected test eye. Pressure readings are taken at various times post-instillation. Animals are kept in their cages with access to food and water between measurements. Pressure readings utilize a Model 30 Classic™ Pneumatonometer to measure intraocular pressure (IOP) non-invasively through applanation tonometry. compound 1 (0.1%) caused a 20% decrease in IOP and its ester, AGN 204216 (0.03%), caused a 30% decrease in IOP (FIG. 2)
# tactile hypersensitivity = assay: Mouse model of tactile hypersensitivity (sulprostone); assay type: in vivo, Mice; settings: for activity in mouse model of tactile hypersensitivity: general statement, no dose
# Method: Mice (5-6; 25-35 g) are injected with sulprostone (300 ng/kg intraperitoneal), a prostaglandin receptor agonist that activates EP1 prostaglandin receptors. This chemical stimulus results in sensitivity to light stroking of their flanks with a paintbrush, which is assessed every five minutes from 15 minutes to 50 minutes post-injection. Animals are scored as 0 (no response), 1 (avoidance) or 2 (vigorous avoidance, vocalization) every five minutes and the scores are summed to yield a total hypersensitivity score (maximum=16).
# Compounds were tested for their ability to reduce the tactile hypersensitivity score when administered 15 min prior to the sulprostone. […] An oral dose of 300 ug/kg was also active. An ester prodrug, compound 3, was also tested orally.
# locomotor activity [2] = assay: Sedation model, exploratory locomotor activity, rats; assay type: in vivo; settings: for rat locomotor activity: 30 min after dosing (FIG. 3)
# Method: (§3) The utility of alpha2-adrenergic agonists is limited by a range of side effects, particularly sedation and cardiovascular depression. The sedative activity of the compounds is assessed by measuring their ability to reduce the exploratory activity of mice and rats when placed in a dark chamber 30 min following dosing. The animal's activity is determined automatically by placing it in a digicom analyzer chamber (Omnitech Electronic). These chambers have photocells criss-crossing the box that are broken as the animal moves around. The computer analyzes this movement and records total activity over a 5-min time period. […] This represents greater than a 300-fold margin of safety (FIG. 4).
# locomotor activity [3] = assay: Sedation model, exploratory locomotor activity, mice; assay type: in vivo
# Method: as §3
compound,measurement,setting,value
O=c1[nH]cc(CC2CCC=C(CO)C2)[nH]1 (centres unmarked),Alpha adrenergic activity,Alpha adrenergic,no Alpha adrenergic activity
NCC1=CCCC(Cc2c[nH]c(=S)[nH]2)C1 (centres unmarked),Intrinsic activity α2B,alpha2B receptor,0.86
same,Intrinsic activity α2A,alpha2A receptor,0.81
same,Intrinsic activity α2C,alpha2C receptor,0.95
OCC1=CCC[C@@H](Cc2c[nH]c(=S)[nH]2)C1,Intrinsic activity α2B,alpha2B receptor,1.0
same,Intrinsic activity α2A,alpha2A receptor,0.9
same,Intrinsic activity α1,α1,1.1
same,Intrinsic activity α2C,alpha2C receptor,1.1
"OCC1=CCCC(Cc2c[nH]c(=S)[nH]2)C1 (centres unmarked) [Compound 1, 4-(3-hydroxymethyl-cyclohex-3-enylmethyl)-1,3-dihydro-imidazole-2-thione]",lowering of IOP,[1],lower rabbit IOP
same,decrease in IOP,[1]; 35 ul of 0.1% solution,20%
same,reduction of tactile hypersensitivity,"tactile hypersensitivity; dosed intraperitoneally 15 min prior to sulprostone, dose response",reduced the hypersensitivity in a dose-related manner
same,effect on tactile hypersensitivity,"tactile hypersensitivity; intraperitoneal, 30 ug/kg",partial effect
same,effect on tactile hypersensitivity,"tactile hypersensitivity; intraperitoneal, 100 ug/kg",full effect
same,total tactile hypersensitivity score,"tactile hypersensitivity; intraperitoneal, 100 ug/kg, maximum=16, sulprostone 12-14, vehicle 4-6",5
same,effect on tactile hypersensitivity,tactile hypersensitivity; oral dose of 300 ug/kg,active
same,rat locomotor activity,locomotor activity [2]; intraperitoneal doses up to at least 3 mg/kg,did not decrease rat locomotor activity
same,rat locomotor activity,locomotor activity [2]; oral doses up to at least 10 mg/kg,did not decrease rat locomotor activity
same,sedation / decrease of locomotor activity,"locomotor activity [2]; qualitative statement, no dose",does not sedate rats
same,margin of safety (non-sedating dose vs effective dose),locomotor activity [2]; rat locomotor activity vs tactile hypersensitivity doses,≥ 30 fold
"O=C(CC1CCCC1)OCC1=CCCC(Cc2c[nH]c(=S)[nH]2)C1 (centres unmarked) [Compound 3, cyclopentyl-acetic acid 5-(2-thioxo-2,3-dihydro-1H-imidazol-4-ylmethyl)-cyclohex-1-enylmethyl ester]",lowering of IOP,[1],lower rabbit IOP
same,decrease in IOP,[1]; 35 ul of 0.03% solution,30%
same,effect on tactile hypersensitivity,tactile hypersensitivity; oral dose of 30 ug/kg,full effect
same,alleviation of tactile hypersensitivity,"tactile hypersensitivity; oral dosing, dose response (FIG. 1)",alleviates tactile hypersensitivity; also recorded: very potent at alleviating the tactile sensitivity in a dose-related manner
same,sedation,"locomotor activity [3]; mice, oral dose of 3 mg/kg",did not sedate
same,margin of safety / therapeutic window,"locomotor activity [3]; oral, mice or rats (FIG. 4)",> 300 fold
same,sedation,"locomotor activity [2]; rats, oral dose of 3 mg/kg",did not sedate
"Brc1c(N=C2NCCN2)ccc2nccnc12 [brimonidine, reference compound]",activity in mouse model of tactile hypersensitivity,tactile hypersensitivity,active
"Clc1cccc(Cl)c1N=C1NCCN1 [clonidine, reference compound]",activity in mouse model of tactile hypersensitivity,tactile hypersensitivity,active
OCC1=CCCC(Cc2c[nH]c(=S)[nH]2)C1 (centres unmarked) [drawing 35],Intrinsic activity α2B,alpha2B receptor,0.98
same,Intrinsic activity α2A,alpha2A receptor,0.85
same,Intrinsic activity α1,α1,0.93
same,Intrinsic activity α2C,alpha2C receptor,1.10
